Test results published in US11993664B2, “Crystalline form of compound and uses thereof in medicine” (priority 2018, dated 2024).
Where “and” joins values, the source holds several entries; their conditions need not be identical. Equal entries are not always repeated. Where two headings read alike, the source gives them in different places.

Tests used:
cyclophilin A = cyclophilin A (Homo sapiens, UniProt P62937); details: background statement; cited from earlier work
[1] = Stress testing under high temperature (60° C.); format: physicochemical; details: for Change of purity in the high temperature test / Purity: 60° C.
[2] = Stress testing under high photolysis (4500 Lux); format: physicochemical
physchem = format: physicochemical; details: water, thermodynamic from solid
Procedure: Agilent 1100 HPLC was utilized to measure solubility and purity, method listed in Table 4 and Table 5, respectively.
Solubility of the crystalline form A was estimated in six solvents at RT. Approximately 2 mg of solids were weighed into each 3-mL glass vial, to which each of the solvents in Table 8 was added in increments of 100 μL until the solids dissolved completely or the total volume reached 2 mL.

[3] = Heating experiments with HPLC purity of heated samples; format: physicochemical
Procedure: Agilent 1100 HPLC was utilized to measure solubility and purity, method listed in Table 4 and Table 5, respectively. To figure out if a different crystal form of freebase existed at elevated temperature as shown by two endothermic peaks in DSC curve in FIG. 2, heating experiments of the crystalline form A were conducted and HPLC purity of heated samples was also detected. […] Also, lower purity at 150° C. compared with 160° C. was speculated to be related to increasing isothermal time.

[4] = design: species or system beagle dogs; details: dog
Procedure: Pharmacokinetic test of compounds in beagle dogs (weigh: 10-12 kg, male, age: 10-12 months, three members in each oral group and intravenous group) was shown as follows.
Beagle dogs received test compounds at a dose of 2.5 mg/kg or 5 mg/kg by oral gavage or at a dose of 1 mg/kg or 2 mg/kg by intravenous injection.
Blood samples of vein were taken at 0.083, 0.25, 0.5, 1, 2, 4, 6, 8 and 24 hours after the administration, and collected in anticoagulation tube with EDTA-K2. The test compounds were extracted from plasma samples by liquid-liquid extraction. Then quantitative analysis was performed on a triple-quadrupole tandem mass spectrometer using multiple reaction monitoring (MRM). Pharmacokinetic parameters were calculated using a noncompartmental method by WinNonLin 6.3 software.

[5] = design: species or system ICR mice; details: mouse
Procedure: Pharmacokinetic test of compounds in mice (weigh: 20-25 g, male, age: 45-60 days, three members in each oral group and intravenous group) was shown as follows.
ICR mice received test compounds at a dose of 10 mg/kg by oral gavage or at a dose of 2 mg/kg or 10 mg/kg by tail intravenous injection. Blood samples of orbital vein were taken at 0.083, 0.25, 0.5, 1, 2, 4, 6, 8 and 24 hours after the administration, and collected in anticoagulation tube with EDTA-K2. The test compounds were extracted from plasma samples by liquid-liquid extraction. Then quantitative analysis was performed on a triple-quadrupole tandem mass spectrometer using multiple reaction monitoring (MRM). Pharmacokinetic parameters were calculated using a noncompartmental method by WinNonLin 6.1 software.

[6] = design: species or system SD rats; details: rat
Procedure: Pharmacokinetic test of compounds of the invention in SD rats (weigh: 200-250 g, male, age: 2-3 months, three members in each oral group and intravenous group) was shown as follows. Rats received test crystal form A at a dose of 2.5 mg/kg or 5 mg/kg by oral gavage or at a dose of 1 mg/kg by intravenous injection. Blood samples of vein were taken at 0.083, 0.25, 0.5, 1, 2, 5, 7 and 24 hours after the administration, and collected in anticoagulation tube with EDTA-K2. The test compounds were extracted from plasma samples by liquid-liquid extraction. Then quantitative analysis was performed on a triple-quadrupole tandem mass spectrometer using multiple reaction monitoring (MRM). Pharmacokinetic parameters were calculated using a noncompartmental method by WinNonLin 6.3 software.

[7] = tested on: con 1b derived bi-cistronic replicon; assay: HCV replicon assay, con 1b bi-cistronic replicon; format: cell-based; details: Hepatitis C virus, LUC endpoint, 72 hours
Description: (§1) The purpose of this study was to assess the potential anti-HCV activity of SCY-635 (free base crystalline form A) in the well-characterized genotype-1 replicon. The first reproducible HCV replication system in cell culture (Huh7 hepatoma cell line) was reported in 1999 (Lohmann et al., 1999). The assay utilizes bi-cistronic subgenomic viral RNAs, or replicons, that encode nonstructural proteins and have the cis RNA elements required for autonomous replication. Replicons are self-replicating RNA molecules that contain all of the nucleotide sequences required for HCV replication, transcription, and translation, but are not infectious.
(§2) SCY-635 (free base crystalline form A) was studied in the HCV Replicon assay to evaluate its ability to inhibit HCV genomic replication. […]
(§3) The compound was dissolved in dimethyl sulfoxide (DMSO) and diluted into culture medium at five half-log concentrations, ranging from either 0.02 to 2.0 μM (for SCY-635), or 0.2 to 20 μM (for CsA). […] EC50 and EC90 values were derived from HCV RNA levels assessed as HCV RNA replicon derived LUC activity. […] IC50 and IC90 values were calculated using a colorimetric assay as an indication of cell numbers and cytotoxicity. […]

[8] = tested on: con 1b derived full length replicon; assay: HCV replicon assay, con 1b full length replicon; format: cell-based; details: Hepatitis C virus
[9] = tested on: H77 replicon (genotype 1a); assay: HCV replicon assay, H77 replicon; format: cell-based; details: Hepatitis C virus
Description: as §1, §2, §3

[10] = tested on: human hepatoma cell line ET (lub ubi neo/ET); assay: Cytotoxicity in the replicon assay (colorimetric assay of cell numbers); details: replicon cells, 72 hours
Description: SCY-635 (free base crystalline form A) was examined in the human hepatoma cell line ET (lub ubi neo/ET), an HCV RNA replicon containing a stable luciferase (LUC) reporter. The HCV RNA replicon ET contains the 5′ end of HCV (with the HCV Internal Ribosome Entry Site (IRES) and the first few amino acids of the HCV core protein) which drives the production of a firefly luciferase (LUC), ubiquitin, and neomycin phosphotransferase (NeoR) fusion protein. Ubiquitin cleavage releases the LUC and NeoR proteins. The EMCV IRES element controls the translation of the HCV […] NS3-NS5. The NS3 protein cleaves the HCV polyprotein to release the mature NS3, NS4A, NS4B, NS5A and NS5B proteins that are required for HCV replication. The 3′ end of the replicon contains the authentic 3′ NTR of HCV. […]
as §3

[11] = monkey, in vivo
[12] = in vivo
[13] = heated to 150 °C, isothermal 20 min
[14] = heated to 160 °C, isothermal 3 min
[15] = heated to 170 °C, isothermal 2 min
[16] = heated to 180 °C, isothermal 3 min
[17] = day 0, listed as The crystalline form A of SCY-635 free base
[18] = listed as crystalline form A of SCY-635 free base

cyclophilin A, sequence (P62937 whole entry, species assumed): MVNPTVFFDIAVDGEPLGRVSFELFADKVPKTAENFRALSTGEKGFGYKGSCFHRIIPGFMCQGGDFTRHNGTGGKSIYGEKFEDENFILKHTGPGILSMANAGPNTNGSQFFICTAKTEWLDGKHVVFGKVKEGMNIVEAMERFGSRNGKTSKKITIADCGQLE

In the case of `C/C=C/C[C@@H](C)[C@@H](O)[C@H]1C(=O)N[C@@H](CC)C(=O)N(C)[C@H](SCCN(C)C)C(=O)N(C)[C@@H](CC(C)(C)O)C(=O)N[C@@H](C(C)C)C(=O)N(C)[C@@H](CC(C)C)C(=O)N[C@@H](C)C(=O)N[C@H](C)C(=O)N(C)[C@@H](CC(C)C)C(=O)N(C)[C@@H](CC(C)C)C(=O)N(C)[C@@H](C(C)C)C(=O)N1C` [SCY-635], the “Concentration inhibiting peptidyl prolyl isomerase (PPlase) catalytic activity” value (cyclophilin A) is listed as “low nanomolar”.
With `C/C=C/C[C@@H](C)[C@@H](O)[C@H]1C(=O)N[C@@H](CC)C(=O)N(C)[C@H](SCCN(C)C)C(=O)N(C)[C@@H](CC(C)(C)O)C(=O)N[C@@H](C(C)C)C(=O)N(C)[C@@H](CC(C)C)C(=O)N[C@@H](C)C(=O)N[C@H](C)C(=O)N(C)[C@@H](CC(C)C)C(=O)N(C)[C@@H](CC(C)C)C(=O)N(C)[C@@H](C(C)C)C(=O)N1C` [The amorphous form of SCY-635 free base] the “Change of purity in the high temperature test” value [1] was “continued to decrease”, the Purity ([1]; day 0) was 98.2% and the Purity ([1]; day 10) was 97.9%. The Purity ([1]; day 50) was 97.7%, the “Change of purity in the high photolysis test” value [2] was “continued to decrease” and the Purity ([2]; day 0) was 98.2%. It also gave a Purity ([2]; day 10) of 98.1% and a Purity ([2]; day 50) of 98.0%.
With `C/C=C/C[C@@H](C)[C@@H](O)[C@H]1C(=O)N[C@@H](CC)C(=O)N(C)[C@H](SCCN(C)C)C(=O)N(C)[C@@H](CC(C)(C)O)C(=O)N[C@@H](C(C)C)C(=O)N(C)[C@@H](CC(C)C)C(=O)N[C@@H](C)C(=O)N[C@H](C)C(=O)N(C)[C@@H](CC(C)C)C(=O)N(C)[C@@H](CC(C)C)C(=O)N(C)[C@@H](C(C)C)C(=O)N1C` [SCY-635 free base crystalline form A, (3 S,6S,9S,12R,15S,18S,21S,24S,27R,30S,33S)-27-((2-(dimethylamino)ethyl)thio)-30-ethyl-33-((1R,2R,E)-1-hydroxy-2-methylhex-4-en-1-yl)-24-(2-hydroxy-2-methylpropyl)-6,9,18-triisobutyl-3,21-diisopropyl-1,4,7,10,12,15,19,25,28-nonamethyl-1,4,7,10,13,16,19,22,25,28,31-undecaazacyc lotritriacontan-2,5,8,11,14,17,20,23,26,29,32-undecaone] the solubility (physchem) was under 1100 µg/mL, the Appearance [3, 13] was “Liquated” and the Purity [3, 13] was 95.6 Area %. The “Solid form after heating (XRPD)” value ([3]; heated to 160° C.) was “converted to be amorphous”, the Appearance [3, 14] was “Liquated” and the Purity [3, 14] was 97.6 Area %. For the same compound, the Appearance [3, 15] was “Liquated”, the Purity [3, 15] was 94.3 Area % and the Appearance [3, 16] was “Liquated”. For the same compound, the Purity [3, 16] was 88.3 Area %, the Purity ([3]; starting material, not heated) was 100.0 Area % and the Purity [1, 17] was 98.0%. For the same compound, the Purity ([1]; day 10, listed as The crystalline form A of SCY-635 free base) was 98.1%, the Purity ([1]; day 30) was 98.0% and the “Change of purity in the high temperature test” value [1, 18] was “not changed”. The “Total impurity and major impurities in stress testing” value ([1]; high temperature and photolysis conditions) was “did not increase”, the Purity [2, 17] was 98.0% and the Purity ([2]; day 30) was 98.0%. The “Change of purity in the high photolysis test” value [2, 18] was “not changed”, the “Pharmacokinetic properties in vivo” value [4] was “better pharmacokinetic properties” and the Oral bioavailability ([4]; in vivo, po) was “orally bioavailable”. For the same compound, the “Pharmacokinetic properties in vivo” value [5] was “better pharmacokinetic properties”, the Oral bioavailability ([5]; in vivo, po) was “orally bioavailable” and the “Pharmacokinetic properties in vivo” value [6] was “better pharmacokinetic properties”. The Oral bioavailability ([6]; in vivo, po) was “orally bioavailable”, the EC50 [7] was 100 nM and 0.132 µg/mL and the EC90 [7] was 350 nM and 0.463 µg/mL. For the same compound, the EC50 [8] was 170 nM and 0.225 µg/mL, the EC90 [8] was 690 nM and 0.912 µg/mL and the EC50 [9] was 0.198 µg/mL and 150 nM. For the same compound, the EC90 [9] was 1.38 µM and 1.82 µg/mL, the “Cell cytotoxicity in the replicon assay” value [10] was “absence of cell cytotoxicity” and the Oral bioavailability [11] was “orally bioavailable”. For the same compound, the Oral bioavailability ([12]; human, po) was “orally bioavailable” and the Pharmacokinetic behavior [12] was “dose-dependent pharmacokinetic behavior”.
